# Measurements published in ChEMBL document CHEMBL3259758, “Thiazolopyridine ureas as novel antitubercular agents acting through inhibition of DNA Gyrase B” (J Med Chem, 2013).
# Key:
# [1] = test system: Plasma; conditions: human
# [2] = physchem; conditions: octanol/water, pH 7.4
# [3] = AUC in po dosed Balb/c mouse infected with Mycobacterium tuberculosis H37Rv administered via gavage for 10 days starting 3 days post-infection measured at day 9 of drug dosing; assay type: ADME, organism-based; conditions: plasma
SMILES,Cp(f) [1] [µM],logD [2],AUC [3] [µg·h/mL]
CCNC(=O)Nc1nc2cc(-c3cncc(OC)c3)c(OCC3CCOC3)nc2s1 (stereo not drawn),2.5,–,–
CCNC(=O)Nc1nc2cc(-c3ccn(C)c(=O)c3)c(OCC3CCOC3)nc2s1 (stereo not drawn),5,–,–
CCNC(=O)Nc1nc2cc(-c3ccn(CCN(C)C)c(=O)c3)c(OCC3CCOC3)nc2s1 (stereo not drawn),5,–,–
CCNC(=O)Nc1nc2cc(-c3cccnc3)c(NCC3CCOC3)nc2s1 (stereo not drawn),40,2.7,–
CCNC(=O)Nc1nc2cc(-c3cncc(OCCN(C)C)c3)c(OCC3CCOC3)nc2s1 (stereo not drawn),11,–,–
CCNC(=O)Nc1nc2cc(-c3ccc(C#N)nc3)c(NC3CCOCC3)nc2s1,6,–,–
CCNC(=O)Nc1nc2cc(-c3ccc(F)nc3)c(OCC3CCOC3)nc2s1 (stereo not drawn),0.6,–,–
CCNC(=O)Nc1nc2cc(-c3ccn(CCOC)c(=O)c3)c(O[C@@H]3CCOC3)nc2s1,11,–,–
CCNC(=O)Nc1nc2cc(-c3cnc(C)nc3)c(OCC3CCOC3)nc2s1 (stereo not drawn),6,–,–
CCNC(=O)Nc1nc2cc(-c3ccn(CCOC)c(=O)c3)c(OCC3CCOC3)nc2s1 (stereo not drawn),7,–,–
C=CCNC(=O)Nc1nc2cc(-c3cccnc3)cnc2s1,3.2,2.9,–
C=CCNC(=O)Nc1nc2cc(-c3cccnc3)ccc2s1,0.7,3.9,–
CCNC(=O)Nc1nc2cc(-c3cncc(OCCN4CCOCC4)c3)c(OCC3CCOC3)nc2s1 (stereo not drawn),10,–,–
CCNC(=O)Nc1nc2cc(-c3ccc(C)nc3)c(OCC3CCOC3)nc2s1 (stereo not drawn),0.9,–,–
CCNC(=O)Nc1nc2cc(-c3ccn(CCN4CCOCC4)c(=O)c3)c(OCC3CCOC3)nc2s1 (stereo not drawn),5,–,–
CCNC(=O)Nc1nc2cc(-c3cccnc3)c(N[C@H]3CCOC3)nc2s1,28,2,200
CCNC(=O)Nc1nc2cc(-c3cc(C(C)C)n(C)c(=O)c3)c(OCC3CCOC3)nc2s1 (stereo not drawn),4,–,–
CCNC(=O)Nc1nc2cc(-c3ccn(CCOC)c(=O)c3)c(N[C@H]3CCOC3)nc2s1,13,–,–
